Source: US20150239831A1, “INHIBITORS OF CENTRAL NERVOUS SYSTEM VASOACTIVE INHIBITORY PEPTIDE RECEPTOR 2” (The Trustees Of Columbia University In The City Of New York, priority 2012, published 2015)
pIC50: −log10 of the molar value. Like-named read-outs stand apart in the source and are kept apart here. Values belong to the compound of their own block, whether it stands above or below them.

What was measured:
Format in all cases: cell-based
VIPR2 [1] = molecular target: T1, VIPR2 (Homo sapiens, UniProt P41587); assay: BRET-based VIPR2 activation assay (CAMYEL cAMP sensor, CHO cells, VIP background)
T1 sequence (P41587 24-438): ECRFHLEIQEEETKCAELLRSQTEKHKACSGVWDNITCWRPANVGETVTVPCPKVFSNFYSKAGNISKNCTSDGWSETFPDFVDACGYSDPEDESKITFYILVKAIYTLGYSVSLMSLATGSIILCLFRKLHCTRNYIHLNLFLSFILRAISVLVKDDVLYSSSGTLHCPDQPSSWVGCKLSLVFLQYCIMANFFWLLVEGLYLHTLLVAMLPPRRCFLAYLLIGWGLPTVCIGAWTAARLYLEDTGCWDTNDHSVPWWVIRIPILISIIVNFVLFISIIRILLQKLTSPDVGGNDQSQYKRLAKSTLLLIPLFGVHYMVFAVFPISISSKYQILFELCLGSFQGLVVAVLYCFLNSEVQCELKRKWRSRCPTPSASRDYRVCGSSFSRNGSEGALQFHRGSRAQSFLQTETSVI
Excerpt: In such a system, a detector cell is used which expresses both the VIPR2 receptor and “CAMYEL,” a YFP-Epac-RLuc8 BRET sensor construct. This construct includes Epac1, a guanine nucleotide exchange factor activated by direct binding of cAMP, fused with an enhanced YFP and Renilla luciferase 8 (Rluc8) allowing BRET upon cAMP-induced conformational changes (Jiang et al., 2007, J Biol Chem. 282:10576-10584). In response to elevated cAMP levels, there is a conformational change in Epac and therefore a change in the proximity of the fused chromophores, Rluc8 and YFP, resulting in measurable energy transfer. Coexpression of this BRET construct with VIPR2, optionally tagged at the N-terminus with a signal peptide and FLAG epitope (SF-VIPR2), for example in HEK293 cells, allows for detection of a VIPR2-specific response to cAMP. BRET readout may be calculated by quantifying the ratio of the light emitted by the acceptor, YFP (λ=525 nm), over the emission from the donor, RLuc8 (λ=485 nm). The proximity of the donor and acceptor, and therefore the BRET ratio, decreases in the presence of cAMP. In non-limiting specific embodiments, a stable cell line may be generated for this assay using the Flp-In T-Rex system in HEK293 cells. This system allows site-specific single copy integration of the gene of interest and control of expression levels using the Tet-repressor site making receptor expression tetracycline-inducible. For example, a CAMYEL and VIPR2 expressing line may be induced with 0.01 μg/ml tetracycline, then, 24 hours later cells may be collected and distributed into 96-well plates. After treatment with candidate inhibitor compound, for example at 5, 1 and 0.5 μM concentrations, cells may be incubated with the light emitting luciferin, coelenterazine H, for 5 min and incubated for 5 min with VIP at increasing concentrations, for example ranging from […] to 10 μM. The fluorescence and luminescence may then be quantified, for example using a PHERAstar (BMG) plate reader. […] Alternatively, analogous experiments may be performed using human cells harvested from a patient having a VIPR2 copy number variation, for example (but not by way of limitation) pluripotent stem cells prepared from such a patient and then transfected with a CAMYEL construct.
Numerous cellular assays were developed that were able to detect VIP responses absent of interference from non-specific vasopressin receptors using this CHO based system. VIPR2 is a Gs coupled receptor. Activation of VIPR2 by VIP leads to both an elevation in cAMP signaling and the recruitment of β-arrestin. A variety of combinations can be transiently transfect into these CHO cells for the assessment of cellular responses to VIP. For the BRET readout CHO cell lines expressing an YFP-Epac-RLuc8 (CAMYEL) BRET sensor were used to detect changes in cAMP. This construct includes Epac1, a guanine nucleotide exchange factor activated by direct binding of cAMP, fused to an enhanced YFP and RLuc8 allowing a change in BRET upon cAMP-induced conformational changes. The key for medium to high throughput screening assays is the use of stable cell lines allowing the continuous assaying of multiple compounds with the ability to generate large numbers of cells for rapid use. In these lines VIPR2 was expressed as one of the stable cell lines assays. This was introduced into the CHO-Flp-IN to allow the generation of isogenic stable cell lines expressing high levels of VIPR2 under control of the CMV promoter. This has been introduced into this line together with the CAMYEL construct previously described. This allows for detection of VIPR2-specific responses to cAMP. EYFP fluorescence and RLuc8 luminescence is quantified in the presence of 5 μM light-emitting luciferin, coelenterazine H, using a PHERAstar (BMG) plate reader. BRET is calculated by quantifying the ratio of the light emitted by the acceptor, YFP (λ=525 nm), over the emission from the donor, RLuc8 (λ=485 nm).
3. […]

VIPR2 [2] = molecular target: T1, VIPR2; assay: % Activity: inhibition of VIP-induced cAMP elevation and β-arrestin recruitment (Table 2); parameters: expressed in transfected cells; host or cells: HEK293 cells transfected with VIPR2 in pCDNA3.1 (as described)
How it was run: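 Recruitment of β-arrestin measured by β-gal fragment complementation luminescence in HEK293 cells co-expressing VIPR2-ProLink and β-arrestin2-EA after 2 h compound at 37° C. VIP-driven cAMP rise in stable hVIPR2 HEK293 cells measured by HTRF after 30 min with inhibitor and VIP.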

VIPR2 [3] = molecular target: T1, VIPR2; assay: Inhibition of VIP-induced β-arrestin recruitment (% Activity Arrestin); parameters: expressed in transfected cells; host or cells: HEK293 cells transfected with VIPR2 in pCDNA3.1 (as described)
How it was run: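 Read-out is β-gal fragment complementation (luminescence) between ProLink-hVIPR2 and EA-β-arrestin2 in transiently transfected HEK293 cells. Cells rested overnight, then exposed to inhibitor 2 h at 37 °C before detection reagent (5 min–1 h, room temperature); values are % activity against VIP-driven recruitment.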

VIPR2 [4] = molecular target: T1, VIPR2; assay: Inhibition of VIP-induced cAMP elevation (% Activity cAMP); parameters: expressed in transfected cells; host or cells: HEK293 cells transfected with VIPR2 in pCDNA3.1 (as described)
How it was run: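 HEK293 cells stably transfected with human VIPR2 were incubated with inhibitor and VIP for 30 min, then cAMP was detected by HTRF after at least 1 h at room temperature. The 665/620 nm ratio ×10,000 was calculated.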

[5] = Table 3, read-out: IC50 (from BRET)

SMILES: O=C(NCc1ccc(F)cc1F)[C@H](Cc1ccccc1)C[C@H](O)CNS(=O)(=O)c1ccc([N+](=O)[O-])cc1 [Compound B14A]
- inhibition at 0.5 µM (VIPR2 [3]; Batch 2): -19.5%
- inhibition at 1 µM (VIPR2 [3]; Batch 2): -13.3%
- inhibition at 5 µM (VIPR2 [3]; Batch 2): 30.8%
- inhibition at 0.5 µM (VIPR2 [4]; Batch 2): 2.4%
- inhibition at 1 µM (VIPR2 [4]; Batch 2): 7.2%
- inhibition at 5 µM (VIPR2 [4]; Batch 2): 23.6%
- % Activity (VIPR2 [2]): 27.2000%

SMILES: O=C(CCCCl)NC[C@@H](O)C[C@@H](Cc1ccccc1)C(=O)N[C@H]1c2ccccc2C[C@H]1O [Compound A22]
- inhibition at 0.5 µM (VIPR2 [3]; Batch 1): 19.2%
- inhibition at 1 µM (VIPR2 [3]; Batch 1): 24.3%
- inhibition at 5 µM (VIPR2 [3]; Batch 1): 21.1%
- inhibition at 0.5 µM (VIPR2 [4]; Batch 1): 16.4%
- inhibition at 1 µM (VIPR2 [4]; Batch 1): 18.2%
- inhibition at 5 µM (VIPR2 [4]; Batch 1): 15.9%
- % Activity (VIPR2 [2]): 18.5%

SMILES: COc1ccc(S(=O)(=O)NC[C@@H](O)C[C@@H](Cc2ccccc2)C(=O)N[C@H]2c3ccccc3C[C@H]2O)cc1OC [S]
- inhibition at 0.5 µM (VIPR2 [3]; Batch 1): 10.5%
- inhibition at 1 µM (VIPR2 [3]; Batch 1): 23.2%
- inhibition at 5 µM (VIPR2 [3]; Batch 1): 32%
- inhibition at 0.5 µM (VIPR2 [4]; Batch 1): 21.1%
- inhibition at 1 µM (VIPR2 [4]; Batch 1): 20.4%
- inhibition at 5 µM (VIPR2 [4]; Batch 1): 28.2%
- % Activity (VIPR2 [2]): 30.1%

SMILES: CC(C)C(=O)NC[C@@H](O)C[C@@H](Cc1ccccc1)C(=O)N[C@H]1c2ccccc2C[C@H]1O [Compound A13]
- inhibition at 0.5 µM (VIPR2 [3]; Batch 1): -11.8%
- inhibition at 1 µM (VIPR2 [3]; Batch 1): -10.7%
- inhibition at 5 µM (VIPR2 [3]; Batch 1): -16.3%
- inhibition at 0.5 µM (VIPR2 [4]; Batch 1): 0.7%
- inhibition at 1 µM (VIPR2 [4]; Batch 1): 2.6%
- inhibition at 5 µM (VIPR2 [4]; Batch 1): -0.9%
- % Activity (VIPR2 [2]): −8.6%

SMILES: O=C([C@H](Cc1ccccc1)C[C@H](O)CNS(=O)(=O)c1ccc([N+](=O)[O-])cc1)N1CCOCC1 [Compound B9A]
- inhibition at 0.5 µM (VIPR2 [3]; Batch 2): -4.3%
- inhibition at 1 µM (VIPR2 [3]; Batch 2): 8.9%
- inhibition at 5 µM (VIPR2 [3]; Batch 2): -1.2%
- inhibition at 0.5 µM (VIPR2 [4]; Batch 2): -3.8%
- inhibition at 1 µM (VIPR2 [4]; Batch 2): -1.6%
- inhibition at 5 µM (VIPR2 [4]; Batch 2): 2.4%
- % Activity (VIPR2 [2]): 0.6%

SMILES: CCN(CC)C(=O)[C@H](Cc1ccccc1)C[C@H](O)CNS(=O)(=O)c1ccc([N+](=O)[O-])cc1 [Compound B15A]
- inhibition at 0.5 µM (VIPR2 [3]; Batch 2): -5.4%
- inhibition at 1 µM (VIPR2 [3]; Batch 2): 7.9%
- inhibition at 5 µM (VIPR2 [3]; Batch 2): 5.7%
- inhibition at 0.5 µM (VIPR2 [4]; Batch 2): -8.1%
- inhibition at 1 µM (VIPR2 [4]; Batch 2): -6.1%
- inhibition at 5 µM (VIPR2 [4]; Batch 2): -4.3%
- % Activity (VIPR2 [2]): 0.7%

Further lines, results first:

- pIC50 (VIPR2 [1]; Table 4, read-out: IC50): 4.55
SMILES: CO[C@H]1Cc2ccccc2[C@@H]1NC(=O)[C@H](Cc1ccccc1)C[C@H](O)CNS(=O)(=O)c1ccc2c(c1)OCCO2 [Compound X135]

- pIC50 (VIPR2 [1]; Table 4, read-out: IC50): 4.12
SMILES: CO[C@@H]1Cc2ccccc2[C@@H]1NC(=O)[C@H](Cc1ccccc1)C[C@H](O)CNS(=O)(=O)c1ccc(C(C)=O)cc1 [Compound X124]

- pIC50 (VIPR2 [1]; Table 4, read-out: IC50): 4.87
SMILES: CO[C@@H]1Cc2ccccc2[C@@H]1NC(=O)[C@H](Cc1ccccc1)C[C@H](O)CNS(=O)(=O)c1ccc(Cl)cc1 [Compound X126]

- % Activity (VIPR2 [2]): 84.52%
- pIC50 (VIPR2 [1]; Table 1, read-out: IC50): 5.89
SMILES: O=C(N[C@H]1c2ccccc2C[C@H]1O)[C@H](Cc1ccccc1)C[C@H](O)CNS(=O)(=O)c1ccc([N+](=O)[O-])cc1 [Ref C1, reference compound]

- pIC50 (VIPR2 [1]; [5]): 5.00
SMILES: O=C(N[C@H]1c2ccccc2C[C@H]1O)[C@H](Cc1ccccc1)C[C@H](O)CNS(=O)(=O)c1ccc2c(c1)CCC2 [Compound X108]

- pIC50 (VIPR2 [1]; Table 1, read-out: IC50): 5.95
- pIC50 (VIPR2 [1]; [5]): 4.34
SMILES: CCc1ccc(S(=O)(=O)NC[C@@H](O)C[C@@H](Cc2ccccc2)C(=O)N[C@H]2c3ccccc3C[C@H]2O)cc1 [Compound X115]

- pIC50 (VIPR2 [1]; Table 1, read-out: IC50): 6.55
- pIC50 (VIPR2 [1]; [5]): 5.69
SMILES: O=C(N[C@H]1c2ccccc2C[C@H]1O)[C@H](Cc1ccccc1)C[C@H](O)CNS(=O)(=O)c1ccc(Cl)cc1 [Compound X106]

- pIC50 (VIPR2 [1]; [5]): 4.39
SMILES: CC(O)c1ccc(S(=O)(=O)NC[C@@H](O)C[C@@H](Cc2ccccc2)C(=O)N[C@H]2c3ccccc3C[C@H]2O)cc1 (some centres unmarked) [Compound X107]

- pIC50 (VIPR2 [1]; [5]): 5.22
SMILES: O=C(N[C@H]1c2ccccc2C[C@H]1O)[C@H](Cc1ccccc1)C[C@H](O)CNS(=O)(=O)c1ccc(F)cc1 [Compound X105]

- pIC50 (VIPR2 [1]; Table 1, read-out: IC50): 5.67
- pIC50 (VIPR2 [1]; [5]): 5.42
SMILES: O=C(N[C@H]1c2ccccc2C[C@H]1O)[C@H](Cc1ccccc1)C[C@H](O)CNS(=O)(=O)c1ccc2c(c1)OCO2 [Compound X110]

- pIC50 (VIPR2 [1]; Table 1, read-out: IC50): 6.69
- pIC50 (VIPR2 [1]; [5]): 4.47
SMILES: O=C(N[C@H]1c2ccccc2C[C@H]1O)[C@H](Cc1ccccc1)C[C@H](O)CNS(=O)(=O)c1ccc2c(c1)OCCO2 [Compound X109]

- inhibition at 0.5 µM (VIPR2 [3]; Batch 3): 0.5%
- inhibition at 1 µM (VIPR2 [3]; Batch 3): 0.2%
- inhibition at 5 µM (VIPR2 [3]; Batch 3): 9.7%
- inhibition at 0.5 µM (VIPR2 [4]; Batch 3): -8.7%
- inhibition at 1 µM (VIPR2 [4]; Batch 3): -8.7%
- inhibition at 5 µM (VIPR2 [4]; Batch 3): -5.8%
- % Activity (VIPR2 [2]): 1.95%
SMILES: CC(=O)Nc1ccc(S(=O)(=O)NC[C@H](C[C@@H](Cc2ccccc2)C(=O)N[C@H]2c3ccccc3C[C@H]2OC(C)=O)OC(C)=O)cc1 [Compound X090]
